{
  "source": "patent US20190388490A1",
  "about": "“PLANT EXTRACTIONS, COMPOSITIONS CONTAINING SAME, AND USES THEREOF” (priority 2010, published 2019)",
  "test": "Free radical scavenging by ESR with DPPH",
  "conditions": "100 μg mixed with alcohol solution of DPPH for 2 minutes",
  "description": "The free radical scavenging capacity of the Bacopa monniera extract product was evaluated using spectrophotometric and electron spin resonance (ESR) techniques. ESR is considered to be the least ambiguous method for the detection of free radicals. 2,2-Diphenyl -1-picrylhydrazyl (DPPH) was used as a stable free radical. An alcohol solution of DPPH was mixed with 100 μg of a Bacopa monniera extract product for 2 minutes and then ESR measurements were conducted. Quercetine was used as a positive control for scavenging the free radicals.",
  "data": [
    {"smiles": "O=c1c(O)c(-c2ccc(O)c(O)c2)oc2cc(O)cc(O)c12", "note": "[quercetine, Quercetine]", "values": [
      {"measurement": "effect on DPPH free radical ESR peak", "result": "slight change in peak height"}
    ]}
  ]
}
